Laboratory results reported in ChEMBL document CHEMBL1139149, “Discovery of tertiary aminoacids as dual PPARalpha/gamma agonists-I” (Bioorg Med Chem Lett, 2007).
Activity calls are given as the source filed them. The calls are words filed in the database; no cut-off is given here.

Columns and labels:
[1] = target: T1, Peroxisome proliferator-activated receptor gamma (Homo sapiens, UniProt P37231); assay: (§1) Displacement of fluorescein labeled ligand from PPARgamma receptor by fluorescence polarization assay
T1 sequence (P37231 whole entry): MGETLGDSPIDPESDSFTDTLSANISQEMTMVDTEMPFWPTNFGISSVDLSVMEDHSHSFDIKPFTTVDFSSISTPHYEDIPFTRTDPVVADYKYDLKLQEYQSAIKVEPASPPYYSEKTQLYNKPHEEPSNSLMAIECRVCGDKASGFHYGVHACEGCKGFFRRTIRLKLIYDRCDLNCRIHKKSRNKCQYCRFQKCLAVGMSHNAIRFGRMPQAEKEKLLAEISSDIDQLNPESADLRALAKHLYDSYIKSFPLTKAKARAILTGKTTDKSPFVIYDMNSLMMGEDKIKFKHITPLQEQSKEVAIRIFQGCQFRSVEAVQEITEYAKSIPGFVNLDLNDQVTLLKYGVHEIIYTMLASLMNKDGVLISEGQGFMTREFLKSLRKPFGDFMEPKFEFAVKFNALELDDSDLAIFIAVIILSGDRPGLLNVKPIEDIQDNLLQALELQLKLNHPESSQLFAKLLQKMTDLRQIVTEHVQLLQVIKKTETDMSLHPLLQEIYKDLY

[2] = target: T2, Peroxisome proliferator-activated receptor alpha (Homo sapiens, UniProt Q07869); assay: Displacement of fluorescein labeled ligand from PPARalpha receptor by fluorescence polarization assay
T2 sequence (Q07869 whole entry): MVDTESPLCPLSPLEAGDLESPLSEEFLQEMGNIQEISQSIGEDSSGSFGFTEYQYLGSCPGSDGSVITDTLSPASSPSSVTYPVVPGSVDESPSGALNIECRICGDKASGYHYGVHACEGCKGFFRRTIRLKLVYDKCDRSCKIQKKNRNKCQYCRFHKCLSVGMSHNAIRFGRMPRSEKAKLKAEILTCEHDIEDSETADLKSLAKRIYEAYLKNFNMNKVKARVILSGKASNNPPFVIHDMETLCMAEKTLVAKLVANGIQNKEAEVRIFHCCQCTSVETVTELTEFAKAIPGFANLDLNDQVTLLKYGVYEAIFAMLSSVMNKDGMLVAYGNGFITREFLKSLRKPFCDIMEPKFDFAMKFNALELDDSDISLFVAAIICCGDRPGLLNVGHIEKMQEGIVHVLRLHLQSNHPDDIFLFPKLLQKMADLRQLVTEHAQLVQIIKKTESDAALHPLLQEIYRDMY

[3] = target: T3, Peroxisome proliferator-activated receptor alpha (Homo sapiens) (UniProt Q07869); assay: Intrinsic activity at PPARalpha receptor expressed in HEK293 cells at 1 uM by GAL4 transactivation assay relative to GW-2331; assay type: cell-based
T3 sequence (whole entry): T2 sequence (Q07869 whole entry)

[4] = target: T1, Peroxisome proliferator-activated receptor gamma
Description: Agonist activity at PPARgamma receptor expressed in HEK293 cells by GAL4 transactivation assay

[5] = target: T2, Peroxisome proliferator-activated receptor alpha; assay: Agonist activity at PPARalpha receptor expressed in HEK293 cells by GAL4 transactivation assay; assay type: functional, cell-based
[6] = Metabolic stability in mouse liver microsomes after 10 mins; assay type: ADME, Microsome; settings: read-out: Stability
[7] = Permeability from apical to basolateral side of Caco-2 cell membrane at pH 6.5; assay type: ADME, cell-based; settings: human, Caco-2, pH 6.5; read-out: permeability
Mus musculus [8] = assay: Antidiabetic activity in db/db mouse assessed as changes in glucose level at 10 mg/kg, po qd for 14 days; assay type: functional
Mus musculus [9] = assay: Antidiabetic activity in db/db mouse assessed as changes in triglyceride level at 10 mg/kg, po qd for 14 days; assay type: functional
[10] = Permeability from apical to basolateral side of Caco-2 cell membrane at pH 7.4; assay type: ADME, cell-based; settings: human, Caco-2, pH 7.4; read-out: permeability
Mus musculus [11] = assay: Antidiabetic activity in db/db mouse assessed as changes in insulin level at 10 mg/kg, po qd for 14 days; assay type: functional
Mus musculus [12] = assay: Antidiabetic activity in db/db mouse assessed as changes in free fatty acid level at 10 mg/kg, po qd for 14 days; assay type: functional
[13] = Permeability from apical to basolateral side of Caco-2 cell membrane at pH 5.5; assay type: ADME, cell-based; settings: human, Caco-2, pH 5.5; read-out: permeability
[14] = target: T4, Peroxisome proliferator-activated receptor gamma (Homo sapiens) (UniProt P37231); assay: as §1
T4 sequence (whole entry): T1 sequence (P37231 whole entry)

Cc1oc(-c2ccccc2)nc1CCOc1ccc(CN(CC(=O)O)Cc2ccc(Oc3ccccc3)cc2)cc1
IC50 [1]: 227 nM
IC50 [2]: 970 nM
Intrinsic activity [3]: 59%
EC50 [4]: 52 nM
EC50 [5]: 35 nM
remaining at 10 min [6]: 46%
Papp A→B [7]: < 1.5 ×10⁻⁶ cm/s

Cc1oc(-c2ccccc2)nc1CCOc1ccc(CN(CC(=O)O)Cc2ccc3c(c2)OCO3)cc1
IC50 [1]: 3290 nM
IC50 [2]: 1800 nM
Intrinsic activity [3]: 77%
EC50 [4]: 307 nM
EC50 [5]: 128 nM

Cc1oc(-c2ccccc2)nc1CCOc1cccc(CN(CC(=O)O)Cc2ccccc2)c1
IC50 [1]: 240 nM
Activity (Mus musculus [8]): -31%
IC50 [2]: 90 nM
Activity (Mus musculus [9]): -29%
Intrinsic activity [3]: 72%
Papp A→B [10]: 22.5 ×10⁻⁶ cm/s
EC50 [4]: 295 nM
EC50 [5]: 22 nM
Activity (Mus musculus [11]): -40%
Activity (Mus musculus [12]): -22%
remaining at 10 min [6]: 84%
Papp A→B [13]: 25.1 ×10⁻⁶ cm/s

Cc1oc(-c2ccccc2)nc1CCOc1ccc(CN(CCOCc2ccccc2)CC(=O)O)cc1
IC50 [1]: 4560 nM
IC50 [2]: 1800 nM
Intrinsic activity [3]: 56%
EC50 [4]: 1180 nM
EC50 [5]: 726 nM

COc1ccc(OC(=O)N(CC(=O)O)Cc2ccc(OCCc3nc(-c4ccccc4)oc3C)cc2)cc1 [MURAGLITAZAR]
Activity (Mus musculus [8]): -50%
Activity (Mus musculus [9]): -50%
Activity (Mus musculus [11]): -67%
Activity (Mus musculus [12]): -69%

Cc1oc(-c2ccccc2)nc1CCOc1cccc(CN(CC(=O)O)Cc2ccc(OCc3ccccc3)cc2)c1
IC50 [1]: 183 nM
IC50 [2]: 387 nM
Intrinsic activity [3]: 56%
EC50 [4]: 412 nM
EC50 [5]: 324 nM

Cc1oc(-c2ccccc2)nc1CCOc1cccc(CN(CC(=O)O)Cc2ccc(Oc3ccccc3)cc2)c1
IC50 [1]: 230 nM
IC50 [2]: 110 nM
Intrinsic activity [3]: 67%
EC50 [4]: 67 nM
EC50 [5]: 30 nM

Cc1oc(-c2ccccc2)nc1CCOc1cccc(CN(CCCc2ccccc2)CC(=O)O)c1
IC50 [1]: 773 nM
IC50 [2]: 51 nM
Intrinsic activity [3]: 62%
EC50 [4]: 901 nM
EC50 [5]: 47 nM

Cc1oc(-c2ccccc2)nc1CCOc1cccc(CN(CC(=O)O)Cc2ccc3ccccc3c2)c1
IC50 [1]: 145 nM
IC50 [2]: 149 nM
Intrinsic activity [3]: 65%
EC50 [4]: 1390 nM
EC50 [5]: 313 nM

Cc1oc(-c2ccccc2)nc1CCOc1ccc(CN(CC(=O)O)Cc2ccc(OCc3ccccc3)cc2)cc1
IC50 [1]: 284 nM
IC50 [2]: 1050 nM
Intrinsic activity [3]: 106%
EC50 [4]: 221 nM
EC50 [5]: 189 nM

Cc1oc(-c2ccccc2)nc1CCOc1cccc(CN(CC(=O)O)Cc2cccc3ccccc23)c1
IC50 [1]: 67 nM
IC50 [2]: 34 nM
Intrinsic activity [3]: 85%
EC50 [4]: 36 nM
EC50 [5]: 5 nM

Cc1oc(-c2ccccc2)nc1CCOc1cccc(CN(CC(=O)O)Cc2cc3ccccc3[nH]2)c1
IC50 [1]: 540 nM
IC50 [2]: 246 nM
Intrinsic activity [3]: 62%
EC50 [4]: 759 nM
EC50 [5]: 197 nM

Cc1oc(-c2ccccc2)nc1CCOc1ccc(CN(CC(=O)O)Cc2cccc3ccccc23)cc1
IC50 [1]: 767 nM
IC50 [2]: 140 nM
Intrinsic activity [3]: 90%
EC50 [4]: 840 nM
EC50 [5]: 21 nM

CCCCCCCN(CCc1ccc(O[C@@](C)(CC)C(=O)O)cc1)C(=O)Nc1ccc(F)cc1F
IC50 [1]: 670 nM
IC50 [2]: 348 nM
Intrinsic activity [3]: 79%
EC50 [4]: 249 nM
EC50 [5]: 71 nM

CCC(CC)CN(CC(=O)O)Cc1ccc(OCCc2nc(-c3ccccc3)oc2C)cc1
Activity [14]: inactive
Intrinsic activity [3]: 8%
EC50 [4]: 1800 nM

CCCCCCCN(CC(=O)O)Cc1ccc(OCCc2nc(-c3ccccc3)oc2C)cc1
IC50 [1]: 2300 nM
IC50 [2]: 1050 nM
Intrinsic activity [3]: 63%
EC50 [4]: 136 nM
EC50 [5]: 180 nM

Cc1oc(-c2ccccc2)nc1CCOc1ccc(CN(CC(=O)O)Cc2ccccc2)cc1
IC50 [1]: 1770 nM
Intrinsic activity [3]: 24%
EC50 [4]: 3600 nM
EC50 [5]: 4020 nM

Cc1oc(-c2ccccc2)nc1CCOc1ccc(CN(CC(=O)O)Cc2ccc3ccccc3c2)cc1
IC50 [1]: 1210 nM
IC50 [2]: 680 nM
Intrinsic activity [3]: 39%
EC50 [4]: 1210 nM
EC50 [5]: 618 nM

Cc1oc(-c2ccccc2)nc1CCOc1ccc(CN(CC(=O)O)Cc2cccc(Oc3ccccc3)c2)cc1
IC50 [1]: 480 nM
IC50 [2]: 88 nM
Intrinsic activity [3]: 107%
EC50 [4]: 391 nM
EC50 [5]: 4 nM

Cc1oc(-c2ccccc2)nc1CCOc1cccc(CN(CCc2ccccc2)CC(=O)O)c1
IC50 [1]: 134 nM
IC50 [2]: 75 nM
Intrinsic activity [3]: 82%
EC50 [4]: 108 nM
EC50 [5]: 44 nM

Cc1oc(-c2ccccc2)nc1CCOc1ccc(CN(CC(=O)O)Cc2ccccn2)cc1
IC50 [1]: 2900 nM
Intrinsic activity [3]: 12%
EC50 [4]: 230 nM
EC50 [5]: 692 nM

Cc1oc(-c2ccccc2)nc1CCOc1ccc(CN(CC(=O)O)Cc2ccc(-c3ccccc3Cl)o2)cc1
IC50 [1]: 280 nM
IC50 [2]: 1800 nM
Intrinsic activity [3]: 55%
EC50 [4]: 267 nM
EC50 [5]: 871 nM

Cc1oc(-c2ccccc2)nc1CCOc1cccc(CN(CC(=O)O)Cc2cccc(Oc3ccccc3)c2)c1
IC50 [1]: 110 nM
IC50 [2]: 83 nM
Intrinsic activity [3]: 95%
EC50 [4]: 359 nM
EC50 [5]: 62 nM

Cc1oc(-c2ccccc2)nc1CCOc1ccc(C[C@H](Nc2ccccc2C(=O)c2ccccc2)C(=O)O)cc1
Intrinsic activity [3]: 59%
